This assay concerns the target T1, BRM (Homo sapiens, UniProt P51531).
T1 construct: In-Cell Western Screen of BRM Degradation in SW1573 Cells; endogenous in cells; host or cells: SW1573 cells
Description: Western blot / In-Cell Western screen of BRM degradation in SW1573 cells. It counts as cell-based. Conditions: overnight (18-20 hours) treatment; for Dmax: read-out: Dmax (%) (% degraded). As for the experimental part:
Western Blot Screen of BRM Degradation in SW1573 Cells
To assess BRM degradation (Dmax and DC50) cells were seeded at 8000/well in 96-well black/clear-bottom plates in 180 μL DMEM growth media (containing 1% pen-strep, 1% HEPES and 10% FBS) per well. Plates were incubated overnight to allow adhesion. The next morning cells were treated by adding 20 μL of 10× target compound concentration (1% DMSO) to appropriate wells and returned to incubator for overnight (18-20 hours). The final DMSO concentration was 0.1%.
For lysing, adherent cells were washed once with 100 μL of DPBS. Cells were lysed in 40 μL of 1× RIPA+HALT protease inhibitor on ice for 10 minutes and frozen until use at −80° C. Thawed lysates were cleaned by filtration in 1.2 µm filter plates, or alternatively, were spun clean at 2300 g at 4° C. for 30 minutes.
For blotting, for each Western sample 30 μL of lysate was added to 10 μL of 4×LDS sample buffer, then denatured at 95° C. for 5 minutes in the thermal cycler and placed on ice. Samples were loaded on 4-15% Tris/Glycine gels and run for 25 minutes at 250 constant volts in 1×Tris/Glycine buffer with 4 μL of ladder and 12 μL of each sample loaded for each blot. Protein was transferred from gels to NC with BioRad Turbo dry-transfer unit with the Turbo/midi default program. All blots were rinsed with ddH2O and blocked for 1 hour at room temperature in 5% BSA in TBST (0.1%) on rocker. Blots were exposed to primary antibody in 5% BSA in TBST (0.1%) overnight at 4° C. on rocker (1:1000 for BRM (Cell Signaling Tech. cat #11966) and 1:2000 for alpha-tubulin (Cell Signaling Tech. cat #3873), a control protein. Blot was washed with TBST (0.1%) three times for 5 minutes on rocker at room temperature. Secondary antibody was added, and blots were incubated on a room temperature rocker for 1 hour with 1:18,000 anti-rabbit-HRP and/or anti-mouse-HRP in 5% BSA in TBST (0.1%). Blots were washed three times in TBST (0.1%) for 5 minutes at room temperature on the rocker. Signal was developed with Femto Maximum Sensitivity substrate for 4 minutes and blots read on ChemiDoc™.
In-Cell Western Screen of BRM Degradation in SW1573 Cells
To assess BRM degradation (Dmax and DC50), cells were seeded at 8000/well in 96-well black/clear-bottom plates in 180 μL DMEM growth media (containing 1% pen-strep, 1% HEPES and 10% FBS) per well. Plates were incubated overnight to allow adhesion. The next morning cells were treated by adding 20 μL of 10× compound (1% DMSO) to appropriate wells and returned to incubator for overnight (18-20 hours). The final DMSO concentration was 0.1%.
For processing, the plates were removed from incubator, the media was removed, and immediately 200 μL of cold (4° C.) DPBS was added to all wells. DPBS was then removed, and 50 μL of 4% paraformaldehyde (PFA) in DPBS (4° C.) was added to all wells, and the plates were incubated at room temperature for 20 minutes. PFA was then removed, and 200 μL of TBS-T containing 0.5% Triton X-100 was added to all wells, and the plates were incubated at room temperature for 30 minutes. TBS-T containing 0.5% Triton X-100 was then removed, and 50 μL of Li-Cor blocking solution was added, and the plates were incubated at room temperature for a minimum of one hour. The blocking solution was removed, and 50 μL of Li-Cor blocking solution containing primary antibody cocktail was added (1:1000 for BRM (Cell Signaling Tech. cat #11966) and 1:2000 for alpha-tubulin (Sigma cat #T6074), a control protein. Plates were then placed in cold room until the next day.
The next day plates were washed three times with TBS-T, 200 μL per well. Fifty […] of secondary antibody cocktail in LI-COR blocking solution (anti-rabbit_800 nm and anti-mouse_680 nm) was added to all wells (diluted 1:5000). The plates were incubated at room temperature for at least one hour while protected from light. The plates were washed twice with TBS-T, 200 μL per well. […]

T1 sequence (P51531 whole entry): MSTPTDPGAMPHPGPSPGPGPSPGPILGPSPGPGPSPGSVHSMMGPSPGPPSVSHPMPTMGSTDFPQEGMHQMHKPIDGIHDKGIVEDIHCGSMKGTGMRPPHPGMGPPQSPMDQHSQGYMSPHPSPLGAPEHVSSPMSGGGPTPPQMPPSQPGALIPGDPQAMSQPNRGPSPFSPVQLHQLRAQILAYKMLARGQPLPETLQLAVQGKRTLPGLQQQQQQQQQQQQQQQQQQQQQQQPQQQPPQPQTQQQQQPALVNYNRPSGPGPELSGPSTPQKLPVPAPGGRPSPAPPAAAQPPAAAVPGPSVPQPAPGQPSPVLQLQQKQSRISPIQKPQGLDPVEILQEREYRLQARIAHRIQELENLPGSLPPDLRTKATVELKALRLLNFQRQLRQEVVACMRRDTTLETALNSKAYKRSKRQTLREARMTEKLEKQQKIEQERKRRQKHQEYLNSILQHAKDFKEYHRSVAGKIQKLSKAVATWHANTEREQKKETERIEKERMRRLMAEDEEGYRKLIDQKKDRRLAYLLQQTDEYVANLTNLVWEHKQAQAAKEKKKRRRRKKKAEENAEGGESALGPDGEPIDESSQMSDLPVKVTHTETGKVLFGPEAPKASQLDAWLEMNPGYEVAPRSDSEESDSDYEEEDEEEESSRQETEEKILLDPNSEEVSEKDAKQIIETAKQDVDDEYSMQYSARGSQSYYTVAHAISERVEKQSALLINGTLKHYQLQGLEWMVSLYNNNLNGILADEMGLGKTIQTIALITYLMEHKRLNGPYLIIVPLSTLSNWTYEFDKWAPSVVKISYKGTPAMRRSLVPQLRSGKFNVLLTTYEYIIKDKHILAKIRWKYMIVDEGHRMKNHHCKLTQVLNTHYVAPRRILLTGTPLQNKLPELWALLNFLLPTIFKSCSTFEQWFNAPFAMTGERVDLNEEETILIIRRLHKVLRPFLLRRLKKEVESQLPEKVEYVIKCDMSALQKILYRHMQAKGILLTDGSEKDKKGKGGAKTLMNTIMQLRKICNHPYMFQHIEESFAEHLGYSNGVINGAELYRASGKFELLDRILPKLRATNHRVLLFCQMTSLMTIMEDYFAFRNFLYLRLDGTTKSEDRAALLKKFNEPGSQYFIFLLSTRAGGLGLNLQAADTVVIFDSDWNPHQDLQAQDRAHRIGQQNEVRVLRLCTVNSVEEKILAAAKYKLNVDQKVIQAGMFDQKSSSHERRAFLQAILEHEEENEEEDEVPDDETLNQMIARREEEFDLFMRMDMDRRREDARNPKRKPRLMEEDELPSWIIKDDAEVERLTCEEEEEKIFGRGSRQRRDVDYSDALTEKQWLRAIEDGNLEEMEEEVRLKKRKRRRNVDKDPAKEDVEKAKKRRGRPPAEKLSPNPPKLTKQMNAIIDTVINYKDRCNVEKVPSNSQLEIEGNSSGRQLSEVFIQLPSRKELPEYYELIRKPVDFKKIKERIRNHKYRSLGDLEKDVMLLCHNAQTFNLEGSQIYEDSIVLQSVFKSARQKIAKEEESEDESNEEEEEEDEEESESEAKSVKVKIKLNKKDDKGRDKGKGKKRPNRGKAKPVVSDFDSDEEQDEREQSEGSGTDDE

With `CC(C)[C@@H](C(=O)N1C[C@H](O)C[C@H]1C(=O)N[C@@H](C)c1ccc(C#N)cc1)c1cc(OCCN2CCN(CCOc3cc(N4CCN(c5cc(-c6ccccc6O)nnc5N)CC45COC5)ccn3)CC2)no1` [Compound 19, (2S,4R)-1-[(2R)-2-{3-[2-(4-{2-[(4-{8-[3-amino-6-(2-hydroxyphenyl)pyridazin-4-yl]-2-oxa-5,8-diazaspiro[3.5]nonan-5-yl}pyridin-2-yl)oxy]ethyl}piperazin-1-yl)ethoxy]-1,2-oxazol-5-yl}-3-methylbutanoyl]-N-[(1S)-1-(4-cyanophenyl)ethyl]-4-hydroxypyrrolidine-2-carboxamide], the half-maximal degradation concentration (DC50) is 2.5 to 10 nM and the Dmax was greater than 75%.
For the molecule `Cc1nccn1-c1ccc([C@H](C)NC(=O)[C@@H]2C[C@@H](O)CN2C(=O)[C@@H](c2cc(OCCN3CCN(CCOc4cc(N5CCN(c6cc(-c7ccccc7O)nnc6N)CC56COC6)ccn4)CC3)no2)C(C)C)cc1` [Compound 20, (2S,4R)-1-[(2R)-2-{3-[2-(4-{2-[(4-{8-[3-amino-6-(2-hydroxyphenyl)pyridazin-4-yl]-2-oxa-5,8-diazaspiro[3.5]nonan-5-yl}pyridin-2-yl)oxy]ethyl}piperazin-1-yl)ethoxy]-1,2-oxazol-5-yl}-3-methylbutanoyl]-4-hydroxy-N-[(1S)-1-[4-(2-methyl-1H-imidazol-1-yl)phenyl]ethyl]pyrrolidine-2-carboxamide], the DC50 lay in the range of 2.5 to 10 nM and the Dmax was greater than 75%.
In turn, `Cc1nccn1-c1ccc([C@H](C)NC(=O)[C@@H]2C[C@@H](O)CN2C(=O)[C@H](c2cc(OCCN3CCN(CCOc4cc(N5CCN(c6cc(-c7ccccc7O)nnc6N)CC56COC6)ccn4)CC3)no2)C(C)C)cc1` [Compound 21, (2S,4R)-1-[(2S)-2-{3-[2-(4-{2-[(4-{8-[3-amino-6-(2-hydroxyphenyl)pyridazin-4-yl]-2-oxa-5,8-diazaspiro[3.5]nonan-5-yl}pyridin-2-yl)oxy]ethyl}piperazin-1-yl)ethoxy]-1,2-oxazol-5-yl}-3-methylbutanoyl]-4-hydroxy-N-[(1S)-1-[4-(2-methyl-1H-imidazol-1-yl)phenyl]ethyl]pyrrolidine-2-carboxamide] registered a DC50 of no less than 30 nM.
In the case of `Cc1ncsc1-c1ccc([C@H](C)NC(=O)[C@@H]2C[C@@H](O)CN2C(=O)[C@@H](c2cc(N3CCC(CN4CCC5(CC4)CC(N4CCO[C@@H](CN6CCOC7(CCCN(c8cc(-c9ccccc9O)nnc8N)C7)C6)C4)C5)CC3)no2)C(C)C)cc1` (stereo partly drawn) [Compound 22, (2S,4R)-1-[(2R)-2-{3-[4-({2-[(2S)-2-({8-[3-amino-6-(2-hydroxyphenyl)pyridazin-4-yl]-1-oxa-4,8-diazaspiro[5.5]undecan-4-yl}methyl)morpholin-4-yl]-7-azaspiro[3.5]nonan-7-yl}methyl)piperidin-1-yl]-1,2-oxazol-5-yl}-3-methylbutanoyl]-4-hydroxy-N-[(1S)-1-[4-(4-methyl-1,3-thiazol-5-yl)phenyl]ethyl]pyrrolidine-2-carboxamide], the DC50 is less than 2.5 nM and the Dmax was greater than 75%.
With `CC(C)[C@@H](C(=O)N1C[C@H](O)C[C@H]1C(=O)N[C@@H](C)c1ccc(C#N)cc1)c1cc(OCCN2CCC(O[C@H]3C[C@@H](Oc4cc(N5CCN(c6cc(-c7ccccc7O)nnc6N)CC56COC6)ccn4)C3)CC2)no1` [Compound 24, (2S,4R)-N-[(1S)-1-(4-cyanophenyl)ethyl]-4-hydroxy-1-[(2R)-3-methyl-2-[3-(2-{4-[(1r,3r)-3-[(4-{8-[3-amino-6-(2-hydroxyphenyl)pyridazin-4-yl]-2-oxa-5,8-diazaspiro[3.5]nonan-5-yl}pyridin-2-yl)oxy]cyclobutoxy]piperidin-1-yl}ethoxy)-1,2-oxazol-5-yl]butanoyl]pyrrolidine-2-carboxamide], the DC50 was less than 2.5 nM and the Dmax is greater than 75%.

The values are drawn from patent publication US20250064945A1 (Arvinas Operations, Inc., priority 2021, published 2025).
